Experimental data: article PMC9114115, “Property space mapping of Pseudomonas aeruginosa permeability to small molecules” (Scientific Reports, 2022)
Where “and” joins values, the source holds several entries; their conditions need not be identical. Identical values can stand only once. Counter-ions that a name gives are not always drawn. Like-named read-outs stand apart in the source and are kept apart here.

Columns and labels:
[1] = tested on: P. aeruginosa PAO1; test: MIC by two-fold dilution, wild type PAO1; assay type: cell-based, Pseudomonas aeruginosa; details: PAO1, MOPS-M9 medium, read-out: MICs
Description: (§1) In all experiments, P. aeruginosa PAO1-Pore (PAO1 attTn7::PLAC-fhuA) and PΔ3-Pore (ΔmexAB ΔmexCD ΔmexXY attTn7::PLAC-fhuA) strains were used[29]. Strains were routinely grown in Luria–Bertani (LB) or MOPS-M9 medium at 37 °C with aeration. MICs shown in Tables 1 and 2 were determined by a two-fold dilution method in LB broth and MOPS-M9 medium, respectively, following the previously described protocol.

[2] = tested on: P. aeruginosa PAO1-Pore; test: MIC by two-fold dilution, hyperporinated PAO1-Pore; assay type: cell-based, Pseudomonas aeruginosa; details: for MICs: PAO1-Pore; for MIC: Pseudomonas aeruginosa, PAO1, read-out: MICs
Description: as §1

[3] = tested on: P. aeruginosa PΔ3; test: microbe, parasite or virus in culture; assay type: cell-based, Pseudomonas aeruginosa; details: for MICs: P∆3, MOPS-M9 medium; for MIC: Pseudomonas aeruginosa, read-out: MICs
Description: as §1

[4] = tested on: P. aeruginosa PΔ3-Pore; test: MIC by two-fold dilution, barrierless PΔ3-Pore; assay type: cell-based, Pseudomonas aeruginosa; details: for MICs: P∆3-Pore; for MIC: Pseudomonas aeruginosa, read-out: MICs, P∆3-Pore, MOPS-M9 medium
Description: as §1

[5] = tested on: P. aeruginosa PAO1-Pore cells; test: LC–MS quantification of intracellular accumulation, PAO1-Pore; details: 10-80 µM; for Concentration slopes of accumulation, PAO1-Pore_1 min: 1 min incubation; for Concentration slopes of accumulation, PAO1-Pore_40 min: 40 min incubation;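 for all read-outs here: slope of accumulation versus external concentration fitted as a line through zero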
Description: (§2) PAO1-Pore and PΔ3-Pore were grown at 37 °C overnight with shaking at 225 rpm in 50 mM MOPS-M9 (pH 7.2) Minimal Medium supplemented with 1% glycerol[42],[43].
(§3) The next day, cells were sub-cultured (1.5:100) in fresh MOPS-M9 medium and grown for 16 h. The cultures were then split into two flasks and one of them was induced with 0.1 mM IPTG. Cells incubated for additional 4 h until OD600 reached ~ 1.0 and harvested by centrifugation at 3,275xg for 20 min in RT, washed and concentrated 10X in the spent medium. Assays were performed in 96-well plates in a final volume of […]. Cells were incubated with 10, 20, 40, 80 µM of compounds and after 1- and 40-min incubation at RT, 100 µL cell aliquots were collected by vacuum filtration onto 1.0 µm Glass Fiber Type B filters. For no-cell controls, compounds were diluted to 10, 20, 40, 80 µM final concentration in the same medium, incubated for 1 min and 40 min and filtered onto the same plates. The cell loaded and cell-free filters were dried, removed from plates and placed into 100% methanol at -80 °C for at least 10 min. Filter-bound material was extracted by water bath sonication for 1 min. Cell and filter debris were separated by ultracentrifugation at 45,000 rpm (TLA55 rotor, Beckman) for 8 min at 16 °C and the pellet re-extracted with 80% methanol in water by sonication for 15 min followed by ultracentrifugation at the same conditions. Supernatants from two extractions were combined. For the compound quantification, 5 µL of solution was analyzed in triplicate.
(§4) Calibration curves for MS analyses of compounds were generated in the same experiment by mixing compound at increasing concentrations with the sonicated PAO1 cell extracts. […] Azithromycin was used as a positive control in all experiments.
(§5) Samples were processed in positive ion mode. An Eclipse plus C18 Rapid Resolution HD column (1.8 μm, 2.1 × 50 mm, Agilent, USA) was used for separation. The flow rate was 0.6 mL/min using the following gradient: 0 to 1 min (0- 20% ACN), 1 to 4 min (20- 80% ACN), 4 to 5.1 min (80–100% ACN), 5.1 to 6.30 (100% ACN). Solvents contained 0.1% formic acid to promote positive ion formation in the electrospray. […] Data were analyzed using Agilent Masshunter workstation quantitative analysis v. B.10 software.

[6] = tested on: P. aeruginosa PΔ3 cells; details: 10-80 µM; for Concentration slopes of accumulation, PΔ3_1 min: 1 min incubation; for Concentration slopes of accumulation, PΔ3_40 min: 40 min incubation;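 for all read-outs here: slope of accumulation versus external concentration fitted as a line through zero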
Description: as §2, §3, §4, §5

[7] = tested on: P. aeruginosa PΔ3-Pore cells; test: LC–MS quantification of intracellular accumulation, PΔ3-Pore; details: 10-80 µM; for Concentration slopes of accumulation, PΔ3-Pore_1 min: 1 min incubation; for Concentration slopes of accumulation, PΔ3-Pore_40min: 40 min incubation;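 for all read-outs here: slope of accumulation versus external concentration fitted as a line through zero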
Description: as §2, §3, §4, §5

[8] = tested on: P. aeruginosa; details: for Cluster of the identified "good" permeators: sheet "Good" permeators, all listed compounds are good permeators
Description: The measured levels of compound accumulation were analyzed using machine learning to determine which features of the compounds are most important for enabling their cellular accumulation and to determine their optimal values. […] To accentuate the permeability aspect, the accumulation slopes in efflux-deficient and hyperporinated strains were normalized to those in the parental PAO1 strain.
To help visualize the data, we performed a principal component (PC) decomposition of the data.

[9] = tested on: P. aeruginosa PAO1 cells; test: LC–MS quantification of intracellular accumulation, PAO1; details: 10-80 µM; for Concentration slopes of accumulation, PAO1_1 min: 1 min incubation; for Concentration slopes of accumulation, PAO1_40 min: 40 min incubation;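 for all read-outs here: slope of accumulation versus external concentration fitted as a line through zero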
Description: as §2, §3, §4, §5

Structure (SMILES) | MICs ([2]; LB broth, Table S2) | MICs ([4]; LB broth, Table S2) | Concentration slopes of accumulation, PAO1-Pore_1 min [5] | Concentration slopes of accumulation, PAO1-Pore_40 min [5] | Concentration slopes of accumulation, PΔ3_1 min [6] | Concentration slopes of accumulation, PΔ3_40 min [6] | Concentration slopes of accumulation, PΔ3-Pore_1 min [7] | Concentration slopes of accumulation, PΔ3-Pore_40min [7] | Cluster of the identified "good" permeators [8] | Concentration slopes of accumulation, PAO1_1 min [9] | Concentration slopes of accumulation, PAO1_40 min [9] | other results
CS(=O)(=O)O.C[C@H]1COc2c(C3(N)CC3)c(F)cc3c(=O)c(C(=O)O)cn1c23 [OU-0000627, PAZUFLOXACIN MESYLATE] | 0.25 | 0.0156 | 5.79 | 7.45 | 3.81 | 5.01 | 5.45 | 5.72 | 1 | – | – | MIC [1]: 0.5 µM; MICs ([2]; MOPS-M9 medium): 0.03 mg/L; MICs ([2]; MOPS-M9 medium, listed as Pazufloxacin mesylate): 0.0625 µM; MICs [3]: 0.05 mg/L; MICs ([3]; listed as Pazufloxacin mesylate): 0.125 µM; MICs ([4]; MOPS-M9 medium): 0.031 μM and 0.01 mg/L
C[C@H]1COc2c(N3CCN(C)CC3)c(F)cc3c(=O)c(C(=O)O)cn1c23 [OU-0000806, Levofloxacin] | 0.25 | 0.0039 | 6.98 | 7.94 | 2.43 | 5.63 | 3.52 | 5.77 | – | 3.66 | 5.59 | MIC ([1]; Pseudomonas aeruginosa): 0.5 µM and 0.18 µg/mL; MIC [2]: 0.031 µM and 0.011 µg/mL; MIC [3]: 0.25 µM and 0.2 µg/mL; MIC [4]: 0.008 µM and 0.003 µg/mL
N[C@@H](CC(=O)N1CCn2c(nnc2C(F)(F)F)C1)Cc1cc(F)c(F)cc1F [OU-0000833, Sitagliptin Monophosphate Monohydrate] | – | – | 4.16 | 4.84 | 4.36 | 4.18 | 4.24 | 4.28 | 1 | 7.55 | 5.67 | permeator classification [8]: good permeators
CN1C[C@H](C(=O)N[C@]2(C)O[C@@]3(O)[C@@H]4CCCN4C(=O)[C@H](Cc4ccccc4)N3C2=O)C=C2c3cccc4[nH]cc(c34)C[C@H]21 [OU-0000834, Ergotamine Tartrate] | – | – | 17.94 | 20.50 | 8.34 | 13.59 | 20.02 | 15.58 | 3 | 15.91 | 12.24 | permeator classification [8]: good permeators
COc1cccc2c1C(=O)c1c(O)c3c(c(O)c1C2=O)C[C@@](O)(C(=O)CO)C[C@@H]3O[C@H]1C[C@H](N)[C@H](O)[C@H](C)O1 [OU-0000835, Doxorubicin] | 100 | 25 | 3.78 | – | 1.32 | 1.10 | 1.89 | 2.13 | – | 1.38 | 0.84 | MIC ([1]; Pseudomonas aeruginosa): 200 µM and 109 µg/mL; MIC [2]: 12.5 µM and 6.8 µg/mL; MIC [3]: 25 µM and 13.6 µg/mL; MIC [4]: 3.2 µM and 1.7 µg/mL
CC1CN=C(c2ccc(NC(=O)Nc3ccc(C4=NCCN4)cc3)cc2)N1.Cl (stereo not shown) [OU-0001395] | – | – | 2.72 | 7.34 | 8.86 | 5.05 | 1.38 | 4.42 | 1 | 3.79 | 6.44 | –
CC(C)(C)OC(=O)N1[C@H](CCC2CCCCC2)CNC(=O)[C@@H]1Cc1cc(F)cc(F)c1 [OU-0032510] | – | – | 37.26 | 28.02 | 30.64 | 29.44 | 31.28 | 28.27 | 3 | 36.86 | 31.85 | –
C=CCN1CC(CCCC)N(C(=O)OC(C)(C)C)C(Cc2ccccc2)C1=O (stereo not shown) [OU-0032511] | – | – | 4.02 | 4.09 | 4.08 | 3.52 | 4.38 | 4.27 | 1 | – | – | –
O=C1N[C@@H](Cc2c[nH]c3ccccc23)C(=O)N2CCC[C@@H]12 [OU-0032512] | – | – | 3.51 | 2.49 | 2.98 | 3.06 | 2.90 | 2.97 | 1 | – | – | –
